Several values for one entry are separate records, joined by “and”; a condition that tells them apart may be missing. Equal entries are not always repeated.
Legend:
Format in all cases: biochemical
USP2 = target: T1, USP2 (Homo sapiens, UniProt O75604); test: USP2 IQF diubiquitin selectivity assay; conditions: for Normalised V0: Fig. 1e, USP-2; for USP2, normalised activity (Ext. 1a): two replicate columns
T1 construct: His (N, cleaved yes); host or cells: Escherichia coli BL21(DE3)
T1 sequence (O75604 258-605 limits assumed): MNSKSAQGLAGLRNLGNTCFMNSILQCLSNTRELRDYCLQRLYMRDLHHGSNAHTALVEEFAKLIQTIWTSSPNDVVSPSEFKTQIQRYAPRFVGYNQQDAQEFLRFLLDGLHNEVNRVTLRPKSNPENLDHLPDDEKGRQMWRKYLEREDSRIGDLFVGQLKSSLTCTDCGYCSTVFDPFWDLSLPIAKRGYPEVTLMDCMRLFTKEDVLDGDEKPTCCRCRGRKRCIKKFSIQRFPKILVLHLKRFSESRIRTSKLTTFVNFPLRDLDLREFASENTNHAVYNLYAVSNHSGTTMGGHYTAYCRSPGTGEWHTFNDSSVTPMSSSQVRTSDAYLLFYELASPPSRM
Description: BRISC DUB activity was measured at room temperature using 1 nM BRISC and 500 nM IQF diubiquitin K63 substrate (LifeSensors, DU6303) in the presence of DMSO and compounds at 10 μM (final concentrations). Assays were performed in 384-well black flat-bottom low-flange plates (Corning, 35373) in buffer containing 50 mM HEPES–NaOH pH 7.0, 100 mM NaCl, 1 mg ml^−1 BSA, 1 mM DTT and 0.03% v/v Brij-35. Then, 10 μl of twofold concentrated enzyme stock was dispensed, followed by transfer of 200 nl of compounds (1 mM stock) using a 384-pin tool and a 15-min incubation at room temperature. Then, 10 μl of twofold concentrated substrate stock was added and the reaction was monitored by measuring fluorescence intensity (excitation, 540 nm; emission, 580 nm) after 20-min incubation at room temperature and ~50% of substrate was consumed. Orthogonal assays for verification of H20 and P12 hit compounds using USP2 (100 nM) and trypsin (125 nM) were performed in identical conditions.
(§1) IQF assays were performed in DUB reaction buffer containing 50 mM HEPES–NaOH pH 7.0, 100 mM NaCl, 0.1 mg ml^−1 BSA, 1 mM DTT and 0.03% v/v Brij-35. […] The final concentration of BRISC WT, all BRISC mutants, HsBRISCΔLoop, MmBRISC and DrBRISCΔNΔC was 1 nM. Other enzymes were tested at the following concentrations: 5 nM ARISC (FL), 10 nM CfBRISCΔNΔC, 250 nM AMSH* (ref. [43]), 500 nM USP2 and 1 μM trypsin (Sigma, 9002-07-7). For Michaelis–Menten experiments, 1 nM BRISC with 0–1 μM IQF K63-linked diubiquitin substrate was used. Michaelis–Menten analyses and Lineweaver–Burk plots were calculated using GraphPad Prism (version 9.0).
(§2) To assess enzymatic activity, BRISC complexes were diluted to concentrations between 1 nM and 50 nM. […] Then, 20-μl enzyme reactions were carried out in 384-well black flat-bottom low-flange plates (Corning, 35373). DUB activity was measured using IQF K63-linked diubiquitin (LifeSensors, DU6303) at 50 nM. Cleaved diubiquitin was monitored by measuring fluorescence intensity (excitation, 544 nm; emission, 575 nm; dichroic mirror, 560 nm). Fluorescence intensity was measured every minute for 30 min at 30 °C. Fluorescence intensity units were plotted against time to generate a linear reaction progress curve, where the initial velocity (V0) corresponds to the gradient of the curve (typically achieved within 15 min). IC50 values were calculated using the GraphPad Prism (version 9.0) built-in dose–response equation for inhibitor concentration versus response (variable slope).

BRCC36–Abraxas 2 complex = target: T2, BRCC36–Abraxas 2 complex (Homo sapiens, UniProt P46736+Q15018); test: BRCC36–Abraxas 2 IQF DUB activity assay; conditions: for Normalised V0: Fig. 1e, BRCC36-Abraxas2
T2 construct: made in house; host or cells: Spodoptera frugiperda (Sf9) insect cells, MultiBac
Description: as §1, §2

[1] = target: T3, panel of 48 purified DUBs (Homo sapiens, UniProt Q15040); test: DUB selectivity profiling (DUBprofiler, ubiquitin–rhodamine(110)–glycine); conditions: DUB JOSD1; screening concentration 5 μM
T3 construct: purchased Ubiquigent (DUBprofiler service)
Description: (§3) Biochemical selectivity profiling (DUBprofiler) was performed by Ubiquigent with a panel of 48 purified DUBs and ubiquitin–rhodamine(110)–glycine as a fluorescent substrate.

[2] = target: T4, panel of 48 purified DUBs (Homo sapiens, UniProt P15374); test: as above; conditions: DUB UCHL3; screening concentration 5 μM; 5 µM
T4 construct: purchased Ubiquigent (DUBprofiler service)
Description: as §3

[3] = target: T5, panel of 48 purified DUBs (Homo sapiens, UniProt Q8TAC2); test: as above; conditions: DUB JOSD2; screening concentration 5 μM; 5 µM
T5 construct: purchased Ubiquigent (DUBprofiler service)
Description: as §3

[4] = target: T6, panel of 48 purified DUBs (Homo sapiens, UniProt P54578); test: as above; conditions: DUB USP14; screening concentration 5 μM; 5 µM
T6 construct: purchased Ubiquigent (DUBprofiler service)
Description: as §3

[5] = target: T7, panel of 48 purified DUBs (Homo sapiens, UniProt Q96JH7); test: as above; conditions: DUB VCPIP; screening concentration 5 μM
T7 construct: purchased Ubiquigent (DUBprofiler service)
Description: as §3

T4 sequence (P15374 whole entry): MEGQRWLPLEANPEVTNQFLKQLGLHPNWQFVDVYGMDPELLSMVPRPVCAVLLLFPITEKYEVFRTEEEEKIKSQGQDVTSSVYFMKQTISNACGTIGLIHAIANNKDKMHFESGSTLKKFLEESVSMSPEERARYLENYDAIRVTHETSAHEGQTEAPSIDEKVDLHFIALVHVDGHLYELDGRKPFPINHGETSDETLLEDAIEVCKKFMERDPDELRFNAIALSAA
T6 sequence (P54578 whole entry): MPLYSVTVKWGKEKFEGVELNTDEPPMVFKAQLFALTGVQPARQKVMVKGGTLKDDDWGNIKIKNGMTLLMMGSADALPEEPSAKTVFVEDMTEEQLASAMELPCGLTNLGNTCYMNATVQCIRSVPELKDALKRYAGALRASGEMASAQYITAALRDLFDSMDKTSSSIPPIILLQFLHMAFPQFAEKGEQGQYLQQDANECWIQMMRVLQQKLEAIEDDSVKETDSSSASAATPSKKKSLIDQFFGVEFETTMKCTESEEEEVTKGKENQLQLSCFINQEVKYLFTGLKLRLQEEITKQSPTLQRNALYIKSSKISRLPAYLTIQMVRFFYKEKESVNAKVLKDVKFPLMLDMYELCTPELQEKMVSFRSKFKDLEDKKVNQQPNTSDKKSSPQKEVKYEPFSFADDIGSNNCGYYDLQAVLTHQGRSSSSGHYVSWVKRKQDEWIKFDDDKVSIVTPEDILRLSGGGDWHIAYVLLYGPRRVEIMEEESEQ
T5 sequence (Q8TAC2 whole entry): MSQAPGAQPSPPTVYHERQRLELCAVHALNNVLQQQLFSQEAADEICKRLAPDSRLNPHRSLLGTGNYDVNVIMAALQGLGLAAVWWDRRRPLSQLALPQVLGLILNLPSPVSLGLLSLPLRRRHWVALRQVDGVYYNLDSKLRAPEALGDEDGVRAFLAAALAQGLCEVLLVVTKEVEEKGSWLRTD
T7 sequence (Q96JH7 whole entry): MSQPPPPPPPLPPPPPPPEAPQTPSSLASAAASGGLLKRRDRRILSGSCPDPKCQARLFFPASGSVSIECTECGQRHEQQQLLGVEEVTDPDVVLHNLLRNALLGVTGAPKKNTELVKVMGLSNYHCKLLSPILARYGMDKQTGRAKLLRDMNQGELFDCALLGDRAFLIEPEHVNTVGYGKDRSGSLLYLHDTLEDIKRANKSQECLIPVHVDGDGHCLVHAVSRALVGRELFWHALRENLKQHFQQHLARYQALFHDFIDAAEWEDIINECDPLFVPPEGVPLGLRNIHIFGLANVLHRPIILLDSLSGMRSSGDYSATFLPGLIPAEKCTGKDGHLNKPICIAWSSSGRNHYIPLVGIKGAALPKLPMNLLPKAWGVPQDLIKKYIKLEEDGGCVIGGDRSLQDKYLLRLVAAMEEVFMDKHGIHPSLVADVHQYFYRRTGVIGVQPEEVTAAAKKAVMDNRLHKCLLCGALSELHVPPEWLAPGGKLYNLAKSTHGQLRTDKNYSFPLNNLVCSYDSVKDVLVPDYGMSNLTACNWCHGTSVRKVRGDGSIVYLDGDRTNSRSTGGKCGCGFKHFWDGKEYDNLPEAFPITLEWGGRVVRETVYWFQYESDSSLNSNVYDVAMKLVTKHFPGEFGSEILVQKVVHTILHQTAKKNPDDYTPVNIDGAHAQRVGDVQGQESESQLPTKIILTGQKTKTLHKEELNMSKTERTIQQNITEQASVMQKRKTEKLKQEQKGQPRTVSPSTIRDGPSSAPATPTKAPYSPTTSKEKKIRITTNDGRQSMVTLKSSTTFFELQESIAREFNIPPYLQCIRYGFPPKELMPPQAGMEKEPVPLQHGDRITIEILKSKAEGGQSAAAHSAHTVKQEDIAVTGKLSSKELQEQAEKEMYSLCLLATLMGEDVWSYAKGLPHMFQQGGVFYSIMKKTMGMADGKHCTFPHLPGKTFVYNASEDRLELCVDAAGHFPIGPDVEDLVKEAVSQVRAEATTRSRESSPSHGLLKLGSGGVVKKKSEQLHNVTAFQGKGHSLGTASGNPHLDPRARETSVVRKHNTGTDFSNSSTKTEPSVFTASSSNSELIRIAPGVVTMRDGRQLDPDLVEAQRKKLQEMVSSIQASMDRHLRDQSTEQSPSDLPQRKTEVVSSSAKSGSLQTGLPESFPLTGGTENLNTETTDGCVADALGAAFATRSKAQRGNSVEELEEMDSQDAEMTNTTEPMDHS

O=C(NC1CCNCC1)c1nn(C(=O)c2c(Cl)cccc2Cl)cc1NC(=O)c1c(Cl)cccc1Cl [JMS-175-2]
Normalised V0 (USP2; JMS-175-2 0.02 μM): 1.069 and 1.241 and 0.9432 | Normalised V0 (USP2; JMS-175-2 0.0399999 μM): 0.8007 and 1.129 and 1.003 | Normalised V0 (USP2; JMS-175-2 0.0599997 μM): 1.048 and 0.9811 and 1.113 | Normalised V0 (USP2; JMS-175-2 0.0799994 μM): 0.9033 and 1.198 and 1.261 | Normalised V0 (USP2; JMS-175-2 0.119998 μM): 0.9288 and 1.09 and 1.206 | Normalised V0 (USP2; JMS-175-2 0.199996 μM): 0.6627 and 1.115 and 1.202 | Normalised V0 (USP2; JMS-175-2 0.499975 μM): 0.7837 and 1.098 and 1.253 | Normalised V0 (USP2; JMS-175-2 0.799936 μM): 0.8725 and 1 and 1.269 | Normalised V0 (USP2; JMS-175-2 1.25984 μM): 0.992 and 1.247 | Normalised V0 (USP2; JMS-175-2 1.9996 μM): 0.8222 and 1.018 and 1.206 | Normalised V0 (USP2; JMS-175-2 3.159 μM): 1.0183 and 0.9107 and 1.032 | Normalised V0 (USP2; JMS-175-2 5.19739 μM): 1.009 and 1.289 | Normalised V0 (USP2; JMS-175-2 7.99364 μM): 0.8621 and 1.003 and 1.185 | Normalised V0 (USP2; JMS-175-2 12.7839 μM): 0.6092 and 0.9802 and 1.084 | Normalised V0 (USP2; JMS-175-2 19.96 μM): 1.301 and 1.171 and 1.043 | Normalised V0 (USP2; JMS-175-2 31.4999 μM): 1.058 and 1.049 and 0.9631 | Normalised V0 (USP2; JMS-175-2 50.147 μM): 1.16 and 1.045 and 1.064 | Normalised V0 (USP2; JMS-175-2 79.7601 μM): 0.9987 and 0.9518 and 1.282 | Normalised V0 (USP2; JMS-175-2 125.99 μM): 1.008 and 1.145 and 1.176 | Normalised V0 (USP2; JMS-175-2 199.922 μM): 0.9471 and 0.7832 and 0.9905 | USP2, normalised activity (Ext. 1a) (USP2; log [compound (μM)] 0.1938, listed as H20): 1.2610 and 1.0496 | USP2, normalised activity (Ext. 1a) (USP2; log [compound (μM)] 0.4949, listed as H20): 1.2203 and 1.1061 | USP2, normalised activity (Ext. 1a) (USP2; log [compound (μM)] 0.7959, listed as H20): 1.1774 and 1.0526 | USP2, normalised activity (Ext. 1a) (USP2; log [compound (μM)] 1.0969, listed as H20): 1.1262 and 1.0278 | USP2, normalised activity (Ext. 1a) (USP2; log [compound (μM)] 1.3979, listed as H20): 1.0528 and 0.9672 | USP2, normalised activity (Ext. 1a) (USP2; log [compound (μM)] 1.6990, listed as H20): 1.0367 and 0.9078 | USP2, normalised activity (Ext. 1a) (USP2; log [compound (μM)] 2.0000, listed as H20): 0.9400 and 0.8456 | USP2, normalised activity (Ext. 1a) (USP2; log [compound (μM)] 2.3010, listed as H20): 0.9026 and 0.7165 | USP2, normalised activity (Ext. 1a) (USP2; log [compound (μM)] -0.1072, listed as H20): 1.1074 and 1.0499 | USP2, normalised activity (Ext. 1a) (USP2; log [compound (μM)] -0.4082, listed as H20): 1.1923 and 1.0651 | USP2, normalised activity (Ext. 1a) (USP2; log [compound (μM)] -0.7093, listed as H20): 1.1905 and 1.0735 | USP2, normalised activity (Ext. 1a) (USP2; log [compound (μM)] -1.7100, normalisation point): 1.0000 | Normalised V0 (BRCC36–Abraxas 2 complex; JMS-175-2 0.02 μM): 0.9193 and 1.28 and 0.6661 | Normalised V0 (BRCC36–Abraxas 2 complex; JMS-175-2 0.0399999 μM): 0.9382 and 1.101 and 1.021 | Normalised V0 (BRCC36–Abraxas 2 complex; JMS-175-2 0.0599997 μM): 0.9046 and 1.264 | Normalised V0 (BRCC36–Abraxas 2 complex; JMS-175-2 0.0799994 μM): 0.9962 and 1.366 and 1.351 | Normalised V0 (BRCC36–Abraxas 2 complex; JMS-175-2 0.119998 μM): 0.9007 and 1.233 and 1.5528 | Normalised V0 (BRCC36–Abraxas 2 complex; JMS-175-2 0.199996 μM): 1.097 and 1.27 and 0.9275 | Normalised V0 (BRCC36–Abraxas 2 complex; JMS-175-2 0.499975 μM): 0.8805 and 1.153 and 1.01 | Normalised V0 (BRCC36–Abraxas 2 complex; JMS-175-2 0.799936 μM): 0.7961 and 1.246 and 1.323 | Normalised V0 (BRCC36–Abraxas 2 complex; JMS-175-2 1.25984 μM): 1.021 and 1.5206 and 1.034 | Normalised V0 (BRCC36–Abraxas 2 complex; JMS-175-2 1.9996 μM): 0.8007 and 0.8599 and 1.275 | Normalised V0 (BRCC36–Abraxas 2 complex; JMS-175-2 3.159 μM): 1.12 and 1.1529 and 0.9992 | Normalised V0 (BRCC36–Abraxas 2 complex; JMS-175-2 5.19739 μM): 0.8446 and 1.053 and 1.407 | Normalised V0 (BRCC36–Abraxas 2 complex; JMS-175-2 7.99364 μM): 0.9387 and 0.8597 and 1.27 | Normalised V0 (BRCC36–Abraxas 2 complex; JMS-175-2 12.7839 μM): 0.8621 and 1.3106 and 1.2815 | Normalised V0 (BRCC36–Abraxas 2 complex; JMS-175-2 19.96 μM): 0.8364 and 1.032 and 1.13 | Normalised V0 (BRCC36–Abraxas 2 complex; JMS-175-2 31.4999 μM): 0.8279 and 0.9824 and 0.8224 | Normalised V0 (BRCC36–Abraxas 2 complex; JMS-175-2 50.147 μM): 0.8729 and 0.9534 and 1.051 | Normalised V0 (BRCC36–Abraxas 2 complex; JMS-175-2 79.7601 μM): 0.848 and 0.9243 and 1.386 | Normalised V0 (BRCC36–Abraxas 2 complex; JMS-175-2 125.99 μM): 0.7998 and 0.9987 and 1.073 | inhibition of BRCC36–Abraxas 2 complex (BRCC36–Abraxas 2 complex; minimally active complex): did not inhibit | Activity (% control) [1]: 67 % control | Activity (% control) [2]: 95 % control and 96 % control | Activity (% control) [3]: 101 % control and 102 % control | Activity (% control) [4]: 85 % control and 95 % control | Activity (% control) [5]: 93 % control

— PMC7617869, “Molecular glues that inhibit deubiquitylase activity and inflammatory signaling” (Nature Structural & Molecular Biology, 2025)
